Columns and labels:
[1] = tested on: rat hippocampal slices; experiment: Electrophysiological assay of hippocampal slices, epileptiform discharge (ED) recording; details: ± SEM
Procedure: A hippocampal slice was placed on the multielectrode array (200 μm distant electrodes) to ensure the multi-electrode grid covered the major surface of the slice. […]
ED frequency (in Hz) was determined as follows: raw data were filtered with a Low Pass filter (Butterworth second order filter) set to 20 Hz. ED number was monitored on-line (epileptiform event amplitudes had to be higher than 15 μV to be counted; a dead time of 200 ms was applied for each epileptiform event detected). ED frequency was averaged using 30-s time intervals. Results are presented as mean frequency of ED for the last 2 min of each condition (± SEM).

[2] = tested on: isolated perfused guinea pig heart; experiment: Langendorff perfused heart assay
Procedure: After injection of heparin sodium (100 unit/body, AY Pharmaceuticals Co., Ltd.) into the jugular vein, the animals were exsanguinated. […] A stainless-steel cannula was inserted in the aorta, followed by attachment to the Langendorff apparatus (Physio-Tech Co., Ltd., Tokyo, Japan). The attached heart was perfused with KH solution at 37.0 ± 0.2 °C. Before use, the KH solution was aerated by a gas mixture (95%O2 + 5%CO2) for 30 min or longer. The perfusion pressure was maintained at 70 mmHg.
DMSO solutions at 1, 10, and 100 mM were diluted 1000-fold with the KH solution to make test solutions of 1, 10, and 100 μM, respectively. The test solutions were cumulatively applied at a flow rate of 20 mL/min for 10 min with each concentration.
An ECG signal was recorded using electrodes fixed on the ventricular apex (+), and a stainless-steel cannula was inserted in the aorta (−), and LVP was recorded from the balloon catheter placed in the left ventricle. The ECG signals were amplified with an amplifier (DAM50; World Precision Instruments, Inc.) and LVPs were monitored with a Pressure Monitor 4 (Living Systems Instrumentation). Both of the waveforms were recorded with computer software (1000 Hz; iox2 and ecgAUTO3; emka Technologies).
Before measurement, the in-balloon pressure was adjusted so that the diastolic blood pressure would be in the range of 0 to 10 mmHg. The cardiac parameters, such as HR, PR interval, QRS duration, QT interval, QTc interval (Fridericia’s formula: QTc = QT/RR^1/3), LVPSP, left-ventricular end diastolic pressure (LVEDP), and LV dP/dt max, were measured.
Data are expressed as mean (± SD). The measured % changes from the pre-application value were used for analyses. Williams test was carried out between the solvent-control and test compound. Student’s t-test was carried out between the solvent-control and positive-control. […] The data from the solvent control and drug groups were tested by F test for homogeneity of variance. F test was performed at the significance level of 5%. When the variances were homogeneous, Student’s t-test was subsequently performed. When the variances were nonhomogeneous, Welch t-test was selected.

[3] = tested on: peristaltic movement; parameters: method as in earlier work; details: ref review reports on the Pharmaceuticals and Medical Devices Agency website; cited from earlier work
[4] = cited from earlier work
[5] = tested on: rat hippocampal slices; experiment: Electrophysiological assay of hippocampal slices, population spike (PS) recording
Procedure: All animals were housed and used in accordance with the French and European legislations for animal care. Rats (Janvier Labs, Le Genest-Saint-Isle, France) were euthanized by fast decapitation, without prior anesthesia. The brain was quickly removed and soaked in ice-cold oxygenated buffer containing KCl 2 mM, NaH2PO4 1.2 mM, MgCl2 7 mM, CaCl2 0.5 mM, NaHCO3 26 mM, glucose 11 mM, and sucrose 250 mM. […] During the experiments, slices were perfused with oxygenated artificial cerebrospinal fluid at 37 °C at a rate of 3 mL/min. The tested slice numbers were > 2 for 100 µM, > 4 for 10 µM, and > 6 for 1 µM (follow-up study). All experiments were carried out with 3-dimensional multielectrode array (Qwane Biosciences S.A., Lausanne, Switzerland) and data were recorded with a commercially available multielectrode array set-up from MultiChannel Systems (MCS GmbH, Reutlingen, Germany).
A hippocampal slice was placed on the multielectrode array (100 μm distant electrodes). One electrode was chosen to stimulate schaffer collaterals (SC) at the CA1 border. The stimulus in a monopolar biphasic current pulse (−300 μA for 60 μs followed by +300 μA for 60 μs) was applied at 30-s intervals. An Input/Output (I/O) curve was derived before each experiment to determine the stimulation intensity. Basal stimulation intensity was then set to 100 μA higher than the minimal intensity necessary to induce PS in the pyramidal cell layer.
Then, 1 μM bicuculline, the antagonist of GABAA, was applied in the continuous presence of the compound for an additional 40-min. Control bicuculline slices were recorded in parallel and after 50 min of control recording, 1 μM bicuculline was applied for a 40-min period.
Normalized PS AUC was averaged by slices for each experiment carried out in the same conditions. PS AUC (± SEM) is expressed as a function of time. The number of PS oscillations induced at the end of the bicuculline-exposure period was determined for each electrode and averaged by slices. The results are presented as mean of the last 2 min of application. Statistical significance was measured using two-way ANOVA analysis with Sidak’s multiple comparisons test, except for the 100 µM concentration because of its small slice number.

[6] = laboratory background data of drugs, n = 3
[7] = within the existing concentration range of each drug, laboratory background data

| Lowest concentration indicating statistically significant % change to solvent control, HR [2, 6] [µM] | Lowest concentration indicating statistically significant % change to solvent control, LVPSP [2, 6] [µM] | Lowest concentration indicating statistically significant % change to solvent control, PR [2, 6] [µM] | Lowest concentration indicating statistically significant % change to solvent control, QRS [2, 6] [µM] | Maximum % change in LV dP/dt max [2, 7] [%] | Lowest concentration indicating statistically significant % change to solvent control, LV dP/dtmax [2, 6] [µM] | SMILES | Lowest concentration indicating statistically significant % change to solvent control, QT [2, 6] [µM] | Lowest concentration indicating statistically significant % change to solvent control, QTc [2, 6] [µM] | EfTPC (effective free therapeutic plasma concentration) [4] | also measured |
| --- | --- | --- | --- | --- | --- | --- | --- | --- | --- | --- |
| 0.001 | 0.03 | 0.01 | – | – | – | CN(CCOc1ccc(NS(C)(=O)=O)cc1)CCc1ccc(NS(C)(=O)=O)cc1 [Dofetilide] | 0.001 | 0.001 | – | Maximum % change in QT interval [2, 7]: 33.5% |
| 1 | 1 | 1 | 3 | – | – | O=C(O[C@@H]1C[C@@H]2C[C@H]3C[C@H](C1)N2CC3=O)c1c[nH]c2ccccc12 [Dolasetron] | – | – | – | Lowest concentration indicating statistically significant % change to solvent control, LV dP/dtmax ([2]; Hartley, guinea pig): 1 µM; Lowest concentration indicating statistically significant % change to solvent control, QT ([2]; Hartley, guinea pig): 1 µM; Lowest concentration indicating statistically significant % change to solvent control, QTc ([2]; Hartley, guinea pig): 1 µM; Maximum % change in PR interval [2, 7]: 106.9% |
| – | – | – | – | −21.8 | – | O=C(O)COCCN1CCN([C@H](c2ccccc2)c2ccc(Cl)cc2)CC1 [Levocetirizine] | – | – | – | – |
| 30 | 3 | 30 | 10 | – | 100 | COc1c(N2C[C@@H]3CCCN[C@@H]3C2)c(F)cc2c(=O)c(C(=O)O)cn(C3CC3)c12 [Moxifloxacin] | 3 | 3 | 10.960 [26] µM | Maximum % change in QT interval [2, 7]: 29.3% |
| 1 | 1 | 10 | 10 | −47.4 | 1 | Cc1nccn1CC1CCc2c(c3ccccc3n2C)C1=O (stereo not shown) [Ondansetron] | 1 | 1 | 1.023 [25] µM | Lowest concentration indicating statistically significant % change to solvent control, LVEDP [2, 6]: 1 µM |

Further lines, the compound ahead of its results:

| SMILES | Lowest concentration indicating statistically significant % change to solvent control, HR [2, 6] [µM] | Lowest concentration indicating statistically significant % change to solvent control, LVPSP [2, 6] [µM] | Lowest concentration indicating statistically significant % change to solvent control, PR [2, 6] [µM] | Lowest concentration indicating statistically significant % change to solvent control, QRS [2, 6] [µM] | Maximum % change in LV dP/dt max [2, 7] [%] | Lowest concentration indicating statistically significant % change to solvent control, LV dP/dtmax [2, 6] [µM] | Lowest concentration indicating statistically significant % change to solvent control, QT [2, 6] [µM] | Lowest concentration indicating statistically significant % change to solvent control, QTc [2, 6] [µM] | EfTPC (effective free therapeutic plasma concentration) [4] | also measured |
| --- | --- | --- | --- | --- | --- | --- | --- | --- | --- | --- |
| Nc1ccncc1 [4-AP, 4-aminopyridine, reference compound] | – | – | – | – | – | – | – | – | – | ED rate ([1]; 4-AP control slices (4-AP alone)): 0.38 ± 0.02 Hz; ED rate ([1]; follow-up test, 4-AP control slices): 0.38 ± 0.04 Hz |
| Nc1nnc(-c2cccc(Cl)c2Cl)c(N)n1 [Lamotrigine] | – | – | – | – | – | – | – | – | – | Concentration at which peristaltic movement was reduced [3]: 300 nM |
| C=C[C@H]1C[N@@]2CC[C@H]1C[C@H]2[C@H](O)c1ccnc2ccc(OC)cc12 [Quinine] | 1 | 1 | 3 | 3 | −77.3 | 1 | 1 | 1 | 21.577 [25] µM | Lowest concentration indicating statistically significant % change to solvent control, LVEDP [2, 6]: 30 µM |
| CN1CCc2cc3c(cc2[C@H]1[C@@H]1OC(=O)c2c1ccc1c2OCO1)OCO3 [bicuculline, reference compound] | – | – | – | – | – | – | – | – | – | Additional spike number ([5]; 1 μM alone, single stimulation, control slices): 1.32 ± 0.32; Additional spike number ([5]; follow-up test, 1 μM bicuculline control slices): 1.47 ± 0.18 |

Source: publication PMC6789782, “Safety Pharmacological Evaluation of the Coffee Component, Caffeoylquinic Acid, and Its Metabolites, Using Ex Vivo and In Vitro Profiling Assays” (Pharmaceuticals, 2019)
